Experimental data taken from US20250129088A1, “CEREBLON E3 UBIQUITIN LIGASE INHIBITOR” (Gan & Lee Pharmaceuticals Co., Ltd., priority 2022, published 2025).

Tests used:
Format in all cases: cell-based
HeLa cells = experiment: HeLa cell proliferation inhibition, CCK-8; conditions: Homo sapiens, 72 h, 3 days
Experimental: The complete medium required for HeLa cells is DMEM high glucose (Gibco, Product number: 11995-065) basal medium containing 10% fetal bovine serum. HeLa cells were seeded in a 96-well plate at a density of 4,000 cells/well, and the next day, different concentrations of the compound of the present invention and the positive control sample Ceritinib (source: Bide Pharmaceuticals) were prepared to treat the cells. The cells were incubated at 37° C., 5% CO2 cell culture incubator for 3 days. Cell viability was detected using the CCK-8 kit (Beyotime, Product number: C0040) according to the manufacturer's instructions. According to the inhibition rate, GraphPad Prism software was used to calculate the IC50 value of each compound for 3 days, and the results are shown in Table 2.

A549 cells = experiment: A549 cell proliferation inhibition, CCK-8; conditions: Homo sapiens, 96 h, A549, 4 days
Experimental: The complete medium required for A549 cells is F-12K (ATCC, Product number: 30-2004) basal medium containing 10% fetal bovine serum. A549 cells were seeded in a 96-well plate at a density of 2,800 cells/well, and the next day, different concentrations of the compound of the present invention and a positive control sample Ceritinib (source: Bide Pharmaceuticals) were prepared to treat the cells. The cells were incubated at 37° C., 5% CO2 cell incubator for 4 days. Cell viability was detected using the CCK-8 kit (Beyotime, Product number: C0040) according to the manufacturer's instructions. According to the inhibition rate, the GraphPad Prism software was used to calculate the IC50 value of each compound for 4 days, and the results are shown in Table 3.

MOLM-13 cells = experiment: MOLM-13 cell proliferation inhibition, CCK-8; conditions: Homo sapiens, 96 h, MOLM-13, 4 days, Table 9
Experimental: The complete medium required for MOLM-13 cells is 1640 (ATCC, Product number: 30-2001) basal medium containing 20% fetal bovine serum. MOLM-13 cells were seeded in a 96-well plate at a density of 7,500 cells/well, and different concentrations of the compounds of the present invention were prepared to treat the cells at the same time. The cells were incubated in a 37° C., 5% CO2 cell culture incubator for 4 days. Cell viability was detected using the CCK-8 kit (Beyotime, Product number: C0040) according to the manufacturer's instructions. According to the inhibition rate, GraphPad Prism software was used to calculate the IC50 value of each compound for 4 days, and the results are shown in Table 9-10.

K562 cells = experiment: K562 cell proliferation inhibition, CCK-8; conditions: Homo sapiens, 96 h, K562, 4 days, Table 12, positive control dBET6
Experimental: The complete medium required for K562 cells is IMDM (ATCC, Product number: 30-2005) basal medium containing 10% fetal bovine serum. K562 cells were seeded in a 96-well plate at a density of 7,500 cells/well, and different concentrations of the compound of the present invention and positive control samples Alisertib (source: Bide Pharmaceuticals) and dBET6 (source: Bide Pharmaceuticals) were prepared to treat the cells. The cells were incubated at a 37° C., 5% CO2 cell culture incubator for 4 days.
Cell viability was detected using the CCK-8 kit (Beyotime, Product number: C0040) according to the manufacturer's instructions. According to the inhibition rate, GraphPad Prism software was used to calculate the IC50 value of each compound for 4 days, and the results are shown in Table 11-12.

T-47D cells = experiment: T-47D cell proliferation inhibition, CCK-8; conditions: Homo sapiens, T47D, 144 h, 6 days
Experimental: The complete medium required for T-47D cells is 1640 (ATCC, Product number: A10491-01) basal medium containing 10% fetal bovine serum. T-47D cells were seeded in a 96-well plate at a density of 3,000/well, and different concentrations of the compound of the present invention and the positive control sample ARV-471 (source: Innochem) were prepared to treat the cells. The cells were incubated at 37° C., 5% for 6 days in a CO2 cell incubator. Cell viability was detected using the CCK-8 kit (Beyotime, Product number: C0040) according to the manufacturer's instructions. According to the inhibition rate, the GraphPadPrism software was used to calculate the IC50 value of each compound for 6 days, and the results are shown in Table 17.

MCF-7 cells = experiment: MCF-7 cell proliferation inhibition, CCK-8; conditions: Homo sapiens, MCF7, 216 h, MCF-7, 9 days
Experimental: The complete medium required for MCF-7 cells is DMEM (gibco, Product number: 11995-065) basal medium containing 10% fetal bovine serum. MCF-7 cells were seeded in a 96-well plate at a density of 800/well, and different concentrations of the compound of the present invention and the positive control sample ARV-471 (source: Enochem) were prepared to treat the cells. The cells were incubated at 37° C., 5% 9 days in a CO2 cell incubator. Cell viability was detected using the CCK-8 kit (Beyotime, Product number: C0040) according to the manufacturer's instructions. According to the inhibition rate, GraphPadPrism software was used to calculate the IC50 value of each compound for 9 days, and the results are shown in Table 18.

SMILES	IC50 (HeLa cells) [µM]	IC50 (A549 cells) [µM]	also measured
Cc1cc(Nc2ncc(Cl)c(Nc3ccccc3S(=O)(=O)C(C)C)n2)c(OC(C)C)cc1C1CCNCC1 [Ceritinib, reference compound]	5.99	4.31	
Cc1nc(Nc2ncc(C(=O)Nc3c(C)cccc3Cl)s2)cc(N2CCN(CCOCCC(=O)N3CCC4(CC3)COc3cc5c(cc34)C(=O)N(C3CCC(=O)NC3=O)C5=O)CC2)n1 (stereo not drawn) [PROTAC 12, N-(2-chloro-6-methylphenyl)-2-((6-(4-(2-(3-(6-(2,6-dioxopiperidin-3-yl)-5,7-dioxo-6,7-dihydro-2H,5H-spiro[furo[2,3-f]isoindole-3,4′-piperidin]-1′-yl)-3-oxopropoxy)ethyl)piperazin-1-yl)-2-methylpyrimidin-4-yl)amino)thiazole-5-carboxamide]			IC50 (MOLM-13 cells): 4.77 µM; IC50 (K562 cells): 0.04 µM
Cc1cc(Nc2ncc(Cl)c(Nc3ccccc3S(=O)(=O)C(C)C)n2)c(OC(C)C)cc1C1CCN(CCOCCC(=O)N2CCC3(CCc4cc5c(cc4O3)CN(C3CCC(=O)NC3=O)C5=O)CC2)CC1 (stereo not drawn) [PROTAC 25]	2.19	7.02	
Cc1cc(Nc2ncc(Cl)c(Nc3ccccc3S(=O)(=O)C(C)C)n2)c(OC(C)C)cc1C1CCN(CCOCCC(=O)N2CCC3(CCc4cc5c(cc4O3)C(=O)N(C3CCC(=O)NC3=O)C5)CC2)CC1 (stereo not drawn) [PROTAC 26, 3-(1-(3-(2-(4-(4-((5-chloro-4-((2-(isopropylsulfonyl)phenyl)amino)pyrimidin-2-yl)amino)-5-isopropoxy-2-methylphenyl)piperidin-1-yl)ethoxy)propionyl)-8′-oxo-3′,4′,6′,8′-tetrahydro-7′H-spiro[piperidine-4,2′-pyrano[2,3-f]isoindole]-7′-yl)piperidine-2,6-dione]	4.33	4.27	
Cc1cc(Nc2ncc(Cl)c(Nc3ccccc3S(=O)(=O)C(C)C)n2)c(OC(C)C)cc1C1CCN(CCOCCC(=O)N2CC3(CCc4cc5c(cc4O3)CN(C3CCC(=O)NC3=O)C5=O)C2)CC1 (stereo not drawn) [PROTAC 27, 3-(1-(3-(2-(4-(4-((5-chloro-4-((2-(isopropylsulfonyl)phenyl)amino)pyrimidin-2-yl)amino)-5-isopropoxy-2-methylphenyl)piperidin-1-yl)ethoxy)propionyl)-6′-oxo-3′,4′,6′,8′-tetrahydro-7′H-spiro[azetidine-3,2′-pyrano[2,3-f]isoindole]-7′-yl)piperidine-2,6-dione]	4.27	11.4	
Cc1cc(Nc2ncc(Cl)c(Nc3ccccc3S(=O)(=O)C(C)C)n2)c(OC(C)C)cc1C1CCN(CCOCCC(=O)N2CC3(CCc4cc5c(cc4O3)C(=O)N(C3CCC(=O)NC3=O)C5)C2)CC1 (stereo not drawn) [PROTAC 28, 3-(1-(3-(2-(4-(4-((5-chloro-4-((2-(isopropylsulfonyl)phenyl)amino)pyrimidin-2-yl)amino)-5-isopropoxy-2-methylphenyl)piperidin-1-yl)ethoxy)propionyl)-8′-oxo-3′,4′,6′,8′-tetrahydro-7′H-spiro[azetidine-3,2′-pyrano[2,3-f]isoindole]-7′-yl)piperidine-2,6-dione]	4.36	6.81	
Cc1cc(Nc2ncc(Cl)c(Nc3ccccc3S(=O)(=O)C(C)C)n2)c(OC(C)C)cc1C1CCN(CCOCCC(=O)N2CCC3(CCc4cc5c(cc4O3)C(=O)N(C3CCC(=O)NC3=O)C5=O)CC2)CC1 (stereo not drawn) [PROTAC 29, 1-(3-(2-(4-(4-((5-chloro-4-((2-(isopropylsulfonyl)phenyl)amino)pyrimidin-2-yl)amino)-5-isopropoxy-2-methylphenyl)piperidin-1-yl)ethoxy)propionyl)-7′-(2,6-dioxopiperidin-3-yl)-3′,4′-dihydro-6′H-spiro[piperidine-4,2′-pyrano[2,3-f]isoindole]-6′,8′(7′H)-dione]	5.41	4.34	
Cc1cc(Nc2ncc(Cl)c(Nc3ccccc3S(=O)(=O)C(C)C)n2)c(OC(C)C)cc1C1CCN(CCOCCC(=O)N2CCC3(CC2)COc2cc4c(cc2C3)C(=O)N(C2CCC(=O)NC2=O)C4=O)CC1 (stereo not drawn) [PROTAC 30, 1-(3-(2-(4-(4-((5-chloro-4-((2-(isopropylsulfonyl)phenyl)amino)pyrimidin-2-yl)amino)-5-isopropoxy-2-methylphenyl)piperidin-1-yl)ethoxy)propionyl)-7′-(2,6-dioxopiperidin-3-yl)-2′H-spiro[piperidine-4,3′-pyrano[2,3-f]isoindole]-6′,8′(4′H,7′H)-dione]	3.09	4.38	
Cc1cc(Nc2ncc(Cl)c(Nc3ccccc3S(=O)(=O)C(C)C)n2)c(OC(C)C)cc1C1CCN(CCOCCC(=O)N2CCC3(CC2)COc2cc4c(cc23)C(=O)N(C2CCC(=O)NC2=O)C4=O)CC1 (stereo not drawn) [PROTAC 31, 1′-(3-(2-(4-(4-((5-chloro-4-((2-(isopropylsulfonyl)phenyl)amino)pyrimidin-2-yl)amino)-5-isopropoxy-2-methylphenyl)piperidin-1-yl)ethoxy)propionyl)-6-(2,6-dioxopiperidin-3-yl)-6-hydrogen-2H,5H-spiro[furo[2,3-f]isoindole-3,4′-piperidine]-5,7-dione]	4.65	10.2	
O=C1CCC(N2Cc3cc4c(cc3C2=O)CCC2(CN(C3CCC5(CC3)CCN(c3ccc([C@@H]6c7ccc(O)cc7CC[C@@H]6c6ccccc6)cc3)CC5)C2)O4)C(=O)N1 (stereo partly drawn) [PROTAC 52, 3-(1-(3-(4-((1R,2S)-6-hydroxy-2-phenyl-1,2,3,4-tetrahydronaphthalen-1-yl)phenyl)-3-azaspiro [5.5]undec-9-yl)-6′-oxo-3′,4′,6′,8′-tetrahydro-7′H-spiro[azetidine-3,2′-pyrano[2,3]isoindol]-7′-yl)piperidine-2,6-dione]			IC50 (T-47D cells): 0.0092 µM; IC50 (MCF-7 cells): 0.03 µM
O=C1CCC(N2Cc3cc4c(cc3C2=O)OC2(CC4)CN(C3CCC4(CC3)CN(c3ccc([C@@H]5c6ccc(O)cc6CC[C@@H]5c5ccccc5)cc3)C4)C2)C(=O)N1 (stereo partly drawn) [PROTAC 53, 3-(1-(2-(4-((1R,2S)-6-hydroxy-2-phenyl-1,2,3,4-tetrahydronaphthalen-1-yl)phenyl)-2-azaspiro [3.5]non-7-yl)-8′-oxo-3′,4′,6′,8′-tetrahydro-7′H-spiro[azetidine-3,2′-pyrano[2,3]isoindol]-7′-yl]piperidine-2,6-dione]			IC50 (T-47D cells): 0.0029 µM; IC50 (MCF-7 cells): 0.09 µM
O=C1CCC(N2C(=O)c3cc4c(cc3C2=O)C2(CCN(C3CCC5(CC3)CCN(c3ccc([C@@H]6c7ccc(O)cc7CC[C@@H]6c6ccccc6)cc3)CC5)CC2)CO4)C(=O)N1 (stereo partly drawn) [PROTAC 54, 6-(2,6-dioxopiperidin-3-yl)-1′-(3-(4-((1R,2S)-6-hydroxy-2-phenyl-1,2,3,4-tetralin-1-yl)phenyl)-3-azaspiro[5.5]undec-9-yl)-6-hydrogen-2H,5H-spiro[furo[2,3-f]isoindole-3,4′-piperidine]-5,7-dione]			IC50 (T-47D cells): 0.068 µM; IC50 (MCF-7 cells): 0.17 µM
